Laboratory results as given in US12496308B2.
Structures can show the parent of a compound that is named as a salt.

What was measured:
[1] = Solid state stability (hydrolysis to the phenol) at room temperature
[2] = Stability and pH of aqueous solutions; assay type: physicochemical; conditions: for longer term stability of solutions: solutions at RT
Procedure: Water is added and the mixture is stirred or sonicated. Yields 10 mg/ml to 20 mg/ml solutions stable for at least 24 hrs.

[3] = Bioconversion of prodrug salt in mouse plasma in vitro; assay type: in vitro ADME; conditions: 20° C.
[4] = system: middle cerebral artery occlusion (MCAo) model; experiment: MCAo stroke model - neurological outcome; conditions: mouse, in vivo
Procedure: To mimic this injury in mice, an intraluminal monofilament model of middle cerebral artery occlusion (MCAo) is used. Occlusion is achieved by inserting a surgical filament into the external carotid artery (ECA) and threading it forward into the internal carotid artery (ICA) until the tip blocks the origin of the MCA. […] This technique is used to study a temporary occlusion in which the MCA is blocked for one hour. The filament is then removed allowing reperfusion to occur for 24 hours before the animal's brain is imaged using T2-weighted scans in a 9.4T Bruker MRI scanner at the Case Center for Imaging Research (FIG. 7).
Neurological Outcome—In the same experiment as above, animals are scored for neurological outcome on a simple 5 point scale described in Manley, G. T. et al., Aquaporin-4 Deletion in Mice Reduces Brain Edema After Acute Water Intoxication and Ischemic Stroke, Nature Medicine, 6, 159-163 (2000).

[5] = system: middle cerebral artery occlusion (MCAo) model; experiment: MCAo stroke model - cerebral edema (hemispheric brain volume by MRI)
Procedure: To mimic this injury in mice, an intraluminal monofilament model of middle cerebral artery occlusion (MCAo) is used. Occlusion is achieved by inserting a surgical filament into the external carotid artery (ECA) and threading it forward into the internal carotid artery (ICA) until the tip blocks the origin of the MCA. […] This technique is used to study a temporary occlusion in which the MCA is blocked for one hour. The filament is then removed allowing reperfusion to occur for 24 hours before the animal's brain is imaged using T2-weighted scans in a 9.4T Bruker MRI scanner at the Case Center for Imaging Research (FIG. 7). […] Solid line highlights the region of infarct in the MCAo brain.
Cerebral Edema—Mice are given saline or treated with 2-{[3,5-bis(trifluoromethyl)phenyl]carbamoyl}-4-chlorophenyl phosphate disodium salt (Compound 5) by multi-dosing at 5 mg/kg i.p. every three hours (n=8 per treatment). […] Ipsilateral and contralateral hemispheric volume is measured from the T2-weighted MR images of mice 24 hours post-icus. Relative change in hemispheric volume is calculated as a percent of the difference between ipsilateral brain volume (Vi) and contralateral brain volume (Vc) relative to the contralateral brain volume (Percent Change in Hemispheric Brain Volume=((Vi−Vc)/Vc)×100%.

[6] = system: mouse water toxicity model for cerebral edema; experiment: Mouse water toxicity model - brain volume by MRI; assay type: in vivo
Procedure: Mouse Water Toxicity Model—Brain Volume by Magnetic Resonance Imaging (MRI): MRI is used to measure changes in brain volume in response to water shock, using the water toxicity model. As described for the survival and brain water content studies above, mice are injected, IP, with a water bolus alone or water bolus and test compound at 0.76 mg/kg, and changes in brain volume as detected by MRI are monitored. […] High resolution T2-weighted sagittal scans (resolution=0.1 mm×0.1 mm×0.7 mm) of the mouse head are obtained prior to water injection, 5.67 min post water injection, and then every 5.2 minutes until the animal expires from the water loading. Each scan contains twenty-five 0.7 mm contiguous imaging slices of which 14-15 slices contain a portion of the brain. The cross sectional area of the brain in each imaging slice is measured by manual region-of-interest selection using ImageJ. Brain volumes are then calculated for each scan by summing the individual cross sectional brain areas and multiplying by the slice thickness (0.7 mm).

[7] = system: mouse water toxicity model; experiment: Mouse water toxicity model - survival curves; conditions: 0.76 mg/kg, versus placebo
Procedure: Mouse Water Toxicity Model—Survival Curves: The in vivo efficacies of the compounds are tested using the mouse water toxicity model, where a mouse is injected with water at 20% of its body weight. […] The resulting euvolemic hyponatremia rapidly leads to CE, making this a practical model to test an inhibitor of the CNS aquaporin, AQP4b.
The ability of mice to survive H2O toxicity is determined in three experiments using 10-12 mice each (16-19 weak old male/female). Deionized water is prepared for injection with either 0.39 mg/kg phenylbenzamide (placebo) or 0.76 mg/kg with test compound.

O=C(Nc1cc(C(F)(F)F)cc(C(F)(F)F)c1)c1cc(Cl)ccc1OP(=O)(O)O [bis ethanolamine salt]
hydrolysis in the solid state [1]: about 10 % per day | Final pH of solutions ([2]; in water): about 7.5 | longer term stability of solutions [2]: about 1 % per day | time sufficient to render prodrug salt undetectable [3]: Less than 5 minutes

O=C(Nc1cc(C(F)(F)F)cc(C(F)(F)F)c1)c1cc(Cl)ccc1OP(=O)([O-])[O-].[Na+].[Na+] [Compound 5]
hydrolysis in the solid state [1]: about 10 % per day | progression to severe paralysis or death [4]: did not progress into a state of severe paralysis or death | longer term stability of solutions [2]: about 1 % per day | relative change in ipsilateral brain volume ([5]; 24 hours after MCAo, 5 mg/kg i.p. every three hours, n=8, ±SEM): 4.2±1.7% | reduction in brain swelling after MCAo ([5]; versus saline controls): 3.2 fold

O=C(Nc1cc(C(F)(F)F)cc(C(F)(F)F)c1)c1cc(Cl)ccc1OP(=O)([O-])O.[Na+] [mono sodium salt]
hydrolysis in the solid state [1]: about 10 % per day | longer term stability of solutions [2]: about 1 % per day

O=C(Nc1cc(C(F)(F)F)cc(C(F)(F)F)c1)c1cc(Cl)ccc1OP(=O)(O)O [mono ethanolamine salt]
hydrolysis ([1]; after 5 days at RT): about 10%

O=C(Nc1cc(C(F)(F)F)cc(C(F)(F)F)c1)c1cc(Cl)ccc1OP(=O)(O)O [Formula I]
stability at RT ([1]; solid sample kept at RT): stable at RT for a week or more | pH of solution ([2]; 5 mg/mL in 1% Na2HPO4): about 7 | pH of solution ([2]; 5 mg/mL in 2% Na2HPO4): 7.4

O=C(Nc1cc(C(F)(F)F)cc(C(F)(F)F)c1)c1cc(Cl)ccc1O [Compound 1]
extent of CE during the period of observation ([6]; 0.76 mg/kg): reduced | rate of CE development ([6]; 0.76 mg/kg IP, fit to single exponential model): 0.032 min⁻¹ | reduction of rate of CE development ([6]; 0.76 mg/kg, versus no drug): 2.5 fold | Cerebral Edema Rate by MRI ([6]; n=14 mice): 0.032 min⁻¹ | improvement of time to 50% survival [7]: roughly 52 min | improvement of percent survival ([7]; n=34): 3.2 fold
